Assays:
[1] = for surface tension liquid-gas: Maximal bubble pressure; for mass density: 101 kPa, Liquid, Buoyancy - hydrostatic balance with magnetic suspension - one sinker
[2] = wn = mass fraction of the nth substance listed; conditions: for surface tension liquid-gas: Maximal bubble pressure; for mass density: 101 kPa, Liquid, Buoyancy - hydrostatic balance with magnetic suspension - one sinker

CCCn1cc[n+](C)c1.N[C@@H](CCC(=O)O)C(=O)[O-]
[1]
Conditions	mass density [kg/m3]	surface tension liquid-gas [mN/m]
298.15 K	1229.2	60.8
318.15 K	1218.6	54.7
323.15 K	1215.9	53.2
328.15 K	1213.2	51.8
333.15 K	1210.6	50.1
338.15 K	1208.2	48.7
343.15 K	1205.3	–

CCCn1cc[n+](C)c1.N[C@@H](CCC(=O)O)C(=O)[O-] + O
[2]
Conditions	mass density, w2 = 0.00841 [kg/m3]	mass density, w2 = 0.01002 [kg/m3]	mass density, w2 = 0.01126 [kg/m3]	mass density, w2 = 0.01281 [kg/m3]	mass density, w2 = 0.01404 [kg/m3]	surface tension liquid-gas, w2 = 0.0089 [mN/m]	surface tension liquid-gas, w2 = 0.012 [mN/m]	surface tension liquid-gas, w2 = 0.0151 [mN/m]	surface tension liquid-gas, w2 = 0.0192 [mN/m]	surface tension liquid-gas, w2 = 0.0222 [mN/m]
318.15 K	1204.8	1202	1200.3	1197.4	1195.6	55.2	55.4	55.5	55.7	56
323.15 K	1202.2	1199.3	1197.6	1194.7	1193	53.8	54	54.2	54.4	54.7
328.15 K	1199.5	1196.7	1195	1192	1190.4	52.5	52.6	52.8	53.1	53.4
333.15 K	1196.9	1194	1192.3	1189.4	1187.7	50.7	51.2	51.4	51.7	51.9
338.15 K	1194.3	1191.4	1189.6	1186.7	1185	49.4	49.9	50.2	50.4	50.7
343.15 K	1191.6	1188.7	1187	1184.1	1182.4	–	–	–	–	–

From the NIST ThermoML archive (doi:10.1021/je1002434)
